From patent US9801738B2, “Liquid cast biodegradable arterial stent” (Northwestern University, priority 2010, dated 2017)

What was measured:
[1] = cited from earlier work
neointimal hyperplasia = test: rat carotid artery injury model, inhibition of neointimal hyperplasia by NO donors; type: in vivo
Method: Using the standard rat carotid artery injury model, the efficacy of two different diazeniumdiolates with markedly different half-lives at inhibiting neointimal hyperplasia were evaluated. […] The two different NO donors investigated were: 1-[2-(carboxylato)pyrrolidin-1-yl]diazen-1-ium-1,2-diolate (PROLI/NO), a short half-life donor, and diazeniumdiolated poly(acrylonitrile) (PAN/NO), a long half-life donor.
To date, it remains unknown how much NO is required in the vasculature to inhibit the subsequent neointimal hyperplasia from developing in humans. In order to estimate how much NO is required in the vasculature to inhibit the subsequent neointimal hyperplasia from developing in humans, the observed NO release may be compared to: 1) data from animal experiments, and 2) known endogenous NO production in humans. […] Because diazeniumdiolates release 2 moles of NO per mole of compound upon reaction with hydrogen ions, it follows that 20 mg of PROLI/NO releases 160 μmoles of NO. Thus, the current formulation that releases 112 μmole/gm (FIG. 10) is similar to what has been used in rat models. An alternative method of estimating whether the current NO-releasing material will produce sufficient NO is to compare the material against known rates of endogenous NO release. […]

Row | Compound | half-life [1] [h] | inhibition of neointimal hyperplasia (neointimal hyperplasia; applied to the periadventitial aspect of an injured artery, 20 mg in rodents) [%] | inhibition of intimal area versus injury alone (neointimal hyperplasia; two weeks after injury, rat carotid artery injury model, p<0.05) [%]
1 | NCCN(CCN)/[N+]([O-])=N/O [DETA/NO] | 20 |  | 
2 | O=C(O)C1CCCN1[N+]([O-])=NO (stereo not drawn) [PROLI/NO, 1-[2-(carboxylato)pyrrolidin-1-yl]diazen-1-ium-1,2-diolate] |  | 91 | 91.2
